# Measurements as given in ChEMBL document CHEMBL3885881, “DrugMatrix”.
# Species on record: Rattus norvegicus
# Type: toxicity, organism-based, Sprague-Dawley
# Settings: in vivo, po, route oral GAVAGE, […]; for ABSOLUTE EOSINOPHIL / ABSOLUTE LYMPHOCYTE / ABSOLUTE MONOCYTE / ABSOLUTE SEGMENTED NEUTROPHIL / BASOPHIL / EOSINOPHIL / ERYTHROCYTE COUNT / HEMATOCRIT / HEMOGLOBIN / LEUKOCYTE COUNT / LYMPHOCYTE / MEAN CORPUSCULAR HEMOGLOBIN / MEAN CORPUSCULAR HEMOGLOBIN CONCENTRATION / MEAN CORPUSCULAR VOLUME / MONOCYTE / NEUTROPHIL / NUCLEATED RED BLOOD CELLS / PLATELET COUNT: tissue Blood; for ALANINE AMINOTRANSFERASE / ALBUMIN / ALKALINE PHOSPHATASE / ASPARTATE AMINOTRANSFERASE / BLOOD UREA NITROGEN / CARBON DIOXIDE / CHLORIDE / CHOLESTEROL / CREATINE PHOSPHOKINASE / CREATININE / GLUCOSE / LACTATE DEHYDROGENASE / LIPASE / PHOSPHORUS / POTASSIUM / SODIUM / TOTAL BILIRUBIN / TOTAL PROTEIN / URIC ACID: tissue Plasma
# [1] = 0 mg/kg, 6 h, vehicle control, dose level Control, time 0.25 day
# [2] = 0 mg/kg, 24 h, vehicle control, dose level Control, time 1 day
# [3] = 400 mg/kg, 6 h, dose level Low, time 0.25 day
# Description: DrugMatrix - Regimen: Single
structure (smiles),measurement,setting,value
ClC(Cl)(Cl)Cl [CARBON TETRACHLORIDE],ABSOLUTE EOSINOPHIL,[1],61.17 CELLS/uL
same,ABSOLUTE LYMPHOCYTE,[1],12625.83 CELLS/uL
same,ABSOLUTE MONOCYTE,[1],417.17 CELLS/uL
same,ABSOLUTE SEGMENTED NEUTROPHIL,[1],1595.83 CELLS/uL
same,BASOPHIL,[1],0%
same,EOSINOPHIL,[1],0.33%
same,ERYTHROCYTE COUNT,[1],5.46 x10E6/uL
same,HEMATOCRIT,[1],36.02%
same,HEMOGLOBIN,[1],13.55 G/DL
same,LEUKOCYTE COUNT,[1],14.7 x10E3/uL
same,LYMPHOCYTE,[1],85.83%
same,MEAN CORPUSCULAR HEMOGLOBIN,[1],24.87 pg
same,MEAN CORPUSCULAR HEMOGLOBIN CONCENTRATION,[1],37.65 G/DL
same,MEAN CORPUSCULAR VOLUME,[1],66.03 fL
same,MONOCYTE,[1],2.67%
same,NEUTROPHIL,[1],11.17%
same,NUCLEATED RED BLOOD CELLS,[1],0 /100WBC
same,PLATELET COUNT,[1],1072.33 x10E3/uL
same,ALANINE AMINOTRANSFERASE,[1],63.33 u/L
same,ALBUMIN,[1],4.58 G/DL
same,ALKALINE PHOSPHATASE,[1],285 u/L
same,ASPARTATE AMINOTRANSFERASE,[1],116.5 u/L
same,BLOOD UREA NITROGEN,[1],9.17 mg/dL
same,CARBON DIOXIDE,[1],18.83 mmol/L
same,CHLORIDE,[1],104.5 MEQ/L
same,CHOLESTEROL,[1],68.67 mg/dL
same,CREATINE PHOSPHOKINASE,[1],421 u/L
same,CREATININE,[1],0.58 mg/dL
same,GLUCOSE,[1],160.67 mg/dL
same,LACTATE DEHYDROGENASE,[1],396 u/L
same,LIPASE,[1],10.33 u/L
same,PHOSPHORUS,[1],12.25 mg/dL
same,POTASSIUM,[1],6.42 MEQ/L
same,SODIUM,[1],142.77 MEQ/L
same,TOTAL BILIRUBIN,[1],0.25 mg/dL
same,TOTAL PROTEIN,[1],5.48 G/DL
same,URIC ACID,[1],1.65 mg/dL
same,HEMATOCRIT,"0 mg/kg, 24 h, dose level Control, time 1 day",31.9%
same,ABSOLUTE EOSINOPHIL,[2],23.83 CELLS/uL
same,ABSOLUTE LYMPHOCYTE,[2],11026.5 CELLS/uL
same,ABSOLUTE MONOCYTE,[2],98.5 CELLS/uL
same,ABSOLUTE SEGMENTED NEUTROPHIL,[2],667.83 CELLS/uL
same,BASOPHIL,[2],0%
same,EOSINOPHIL,[2],0.17%
same,ERYTHROCYTE COUNT,[2],4.92 x10E6/uL
same,HEMOGLOBIN,[2],12.6 G/DL
same,LEUKOCYTE COUNT,[2],11.82 x10E3/uL
same,LYMPHOCYTE,[2],93%
same,MEAN CORPUSCULAR HEMOGLOBIN,[2],25.7 pg
same,MEAN CORPUSCULAR HEMOGLOBIN CONCENTRATION,[2],39.57 G/DL
same,MEAN CORPUSCULAR VOLUME,[2],64.97 fL
same,MONOCYTE,[2],0.83%
same,NEUTROPHIL,[2],6%
same,NUCLEATED RED BLOOD CELLS,[2],0 /100WBC
same,PLATELET COUNT,[2],872.33 x10E3/uL
same,ALANINE AMINOTRANSFERASE,[2],82.67 u/L
same,ALBUMIN,[2],4.17 G/DL
same,ALKALINE PHOSPHATASE,[2],321.83 u/L
same,ASPARTATE AMINOTRANSFERASE,[2],99.5 u/L
same,BLOOD UREA NITROGEN,[2],13.33 mg/dL
same,CARBON DIOXIDE,[2],33.67 mmol/L
same,CHLORIDE,[2],99.83 MEQ/L
same,CHOLESTEROL,[2],64 mg/dL
same,CREATINE PHOSPHOKINASE,[2],275.33 u/L
same,CREATININE,[2],0.21 mg/dL
same,GLUCOSE,[2],146.17 mg/dL
same,LACTATE DEHYDROGENASE,[2],101 u/L
same,LIPASE,[2],9.83 u/L
same,PHOSPHORUS,[2],8.82 mg/dL
same,POTASSIUM,[2],5.51 MEQ/L
same,SODIUM,[2],143.2 MEQ/L
same,TOTAL BILIRUBIN,[2],0.18 mg/dL
same,TOTAL PROTEIN,[2],5.83 G/DL
same,URIC ACID,[2],0.63 mg/dL
same,ABSOLUTE EOSINOPHIL,[3],44 CELLS/uL
same,ABSOLUTE LYMPHOCYTE,[3],11229.17 CELLS/uL
same,ABSOLUTE MONOCYTE,[3],321.83 CELLS/uL
same,ABSOLUTE SEGMENTED NEUTROPHIL,[3],3421.67 CELLS/uL
same,BASOPHIL,[3],0%
same,EOSINOPHIL,[3],0.33%
same,ERYTHROCYTE COUNT,[3],6.19 x10E6/uL
same,HEMATOCRIT,[3],40.97%
same,HEMOGLOBIN,[3],15.07 G/DL
same,LEUKOCYTE COUNT,[3],15.02 x10E3/uL
same,LYMPHOCYTE,[3],73%
same,MEAN CORPUSCULAR HEMOGLOBIN,[3],24.45 pg
same,MEAN CORPUSCULAR HEMOGLOBIN CONCENTRATION,[3],36.95 G/DL
same,MEAN CORPUSCULAR VOLUME,[3],66.17 fL
same,MONOCYTE,[3],2.17%
same,NEUTROPHIL,[3],24.5%
same,NUCLEATED RED BLOOD CELLS,[3],0 /100WBC
same,PLATELET COUNT,[3],1278.5 x10E3/uL
same,ALANINE AMINOTRANSFERASE,[3],102.5 u/L
same,ALBUMIN,[3],4.68 G/DL
same,ALKALINE PHOSPHATASE,[3],305.83 u/L
same,ASPARTATE AMINOTRANSFERASE,[3],279.83 u/L
same,BLOOD UREA NITROGEN,[3],16.33 mg/dL
same,CARBON DIOXIDE,[3],16.33 mmol/L
same,CHLORIDE,[3],100.33 MEQ/L
same,CHOLESTEROL,[3],70 mg/dL
same,CREATINE PHOSPHOKINASE,[3],845.5 u/L
same,CREATININE,[3],0.19 mg/dL
same,GLUCOSE,[3],129.67 mg/dL
same,LACTATE DEHYDROGENASE,[3],1003.17 u/L
same,LIPASE,[3],9 u/L
same,PHOSPHORUS,[3],15.78 mg/dL
same,POTASSIUM,[3],7.57 MEQ/L
same,SODIUM,[3],142.47 MEQ/L
same,TOTAL BILIRUBIN,[3],0.3 mg/dL
same,TOTAL PROTEIN,[3],6.17 G/DL
same,URIC ACID,[3],3.2 mg/dL
